From patent publication US7635696B2, “Isoxazoline-indole derivatives with an improved antipsychotic and anxiolytic activity” (Janssen Pharmaceutica N.V., priority 2004, dated 2009)

Columns and labels:
human 5HT transporter = target: T1, human 5HT transporter (Homo sapiens, UniProt P31645); assay: Binding experiment for 5-HT transporter ([3H]Paroxetine); conditions: transfected HEK cell membranes, [3H]Paroxetine
T1 construct: host or cells: HEK cells
Outline: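 Competition binding on membranes from HEK cells transfected with human 5HT transporter, using [3H]paroxetine (prepared at 5 nmol/L) in 50 mM Tris-HCl, 120 mM NaCl, 5 mM KCl, pH 7.4. Incubation 60 min at 25 °C; nonspecific binding with imipramine 10^−6 mol/L; filtration and scintillation counting give % specific binding curves.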

Human 5HT1A receptor = target: T2, Human 5HT1A receptor (Homo sapiens, UniProt P08908); assay: Binding experiment for 5-HT1A receptor ([3H]8OHDPAT); conditions: transfected L929 cell membranes, [3H]8OHDPAT
T2 construct: expressed in transfected cells; host or cells: L929 cells (stably transfected)
T2 sequence (P08908 1-422): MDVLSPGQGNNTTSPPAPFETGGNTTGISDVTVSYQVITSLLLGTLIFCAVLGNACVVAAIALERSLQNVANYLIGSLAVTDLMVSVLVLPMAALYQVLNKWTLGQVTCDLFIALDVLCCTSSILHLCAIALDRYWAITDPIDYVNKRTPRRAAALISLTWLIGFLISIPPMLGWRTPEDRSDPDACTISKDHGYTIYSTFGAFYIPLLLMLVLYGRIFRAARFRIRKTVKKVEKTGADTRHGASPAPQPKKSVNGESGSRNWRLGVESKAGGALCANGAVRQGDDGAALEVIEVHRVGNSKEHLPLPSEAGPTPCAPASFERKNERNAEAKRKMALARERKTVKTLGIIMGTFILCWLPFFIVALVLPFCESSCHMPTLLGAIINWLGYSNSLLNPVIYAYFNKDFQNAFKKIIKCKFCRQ
Outline: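 Competition binding with 5 nmol/L [3H]8OHDPAT (diluted stock) on membranes from L929 cells stably transfected with human 5HT1A, in 50 mM Tris-HCl/4 mM CaCl2, pH 7.7, 30 min at 37 °C. Non-specific binding defined with 10^−6 mol/L spiroxatrine; bound radioactivity measured by filtration and scintillation counting.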

[1] = target: T3, Human Dopamine D2L receptor (Homo sapiens, UniProt P14416); assay: Binding experiment for dopamine D2 receptor ([3H]Spiperone); conditions: D2L-transfected CHO cell membranes
T3 construct: expressed in transfected cells; host or cells: CHO cells
Outline: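 Membranes from CHO cells transfected with human D2L receptor incubated 30 min at 37 °C with [3H]spiperone (diluted to 2 nmol/L) in Tris-HCl buffer pH 7.7 with NaCl, CaCl2, MgCl2, KCl. Nonspecific binding with 10^−6 mol/L butaclamol; bound radioactivity by filtration and scintillation counting, competition curves from % specific binding.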

[2] = target: T4, Human Dopamine D3 receptor (Homo sapiens, UniProt P35462); assay: Binding experiment for dopamine D3 receptor ([125I]Iodosulpride); conditions: transfected CHO cell membranes
T4 construct: expressed in transfected cells; host or cells: CHO cells
Protocol: The interaction of the compounds of Formula (I) with dopamine-receptors, h5HT-transporter and h5HT1A receptor was assessed in in vitro radioligand binding experiments. In general, a low concentration of a radioligand with a high binding affinity for a particular receptor or transporter is incubated with a sample of a tissue preparation enriched in a particular receptor or transporter or with a preparation of cells expressing cloned human receptors in a buffered medium. During the incubation, the radioligand binds to the receptor or transporter. When equilibrium of binding is reached, the receptor bound radioactivity is separated from the non-bound radioactivity, and the receptor- or transporter-bound activity is counted. The interaction of the test compounds with the receptor is assessed in competition binding experiments. Various concentrations of the test compound are added to the incubation mixture containing the receptor- or transporter preparation and the radioligand. The test compound in proportion to its binding affinity and its concentration inhibits binding of the radioligand.
Human Dopamine D3 receptor-transfected CHO cells were collected by scraping into ice-cold Tris-HCl buffer (50 mM, pH 7.4). The suspension was centrifuged (23 500×g, 10 min, 4° C.) and pellets stored at −70° C. until required. They were then thawed and briefly homogenised using an Ultra-Turrax T25 homogeniser prior to dilution to an appropriate protein concentration optimised for specific and non-specific binding. [^125I]Iodosulpride (Amersham, specific activity 2000 Ci/mmol) was diluted in Tris-HCl assay buffer containing NaCl, CaCl2, MgCl2, KCl and BSA (50, 120, 2, 1, 5 mM, 0.1% respectively, adjusted to pH 7.7 with HCl) at a concentration of 2 nmol/L. Prepared radioligand (20 μl) was incubated (60 min, RT) and with 20 μl of either the 10% DMSO control, Risperidone (10^−6 mol/L final concentration), or compound of interest, then with membrane preparations (80 μl). Overnight incubation followed after addition of WGA-coated PVT SPA beads (250 μl; Amersham) and membrane-bound counts measured in a Wallac Microbeta. % Specific bound and competition binding curves were calculated using S-Plus software (Insightful).

T4 sequence (P35462 whole entry): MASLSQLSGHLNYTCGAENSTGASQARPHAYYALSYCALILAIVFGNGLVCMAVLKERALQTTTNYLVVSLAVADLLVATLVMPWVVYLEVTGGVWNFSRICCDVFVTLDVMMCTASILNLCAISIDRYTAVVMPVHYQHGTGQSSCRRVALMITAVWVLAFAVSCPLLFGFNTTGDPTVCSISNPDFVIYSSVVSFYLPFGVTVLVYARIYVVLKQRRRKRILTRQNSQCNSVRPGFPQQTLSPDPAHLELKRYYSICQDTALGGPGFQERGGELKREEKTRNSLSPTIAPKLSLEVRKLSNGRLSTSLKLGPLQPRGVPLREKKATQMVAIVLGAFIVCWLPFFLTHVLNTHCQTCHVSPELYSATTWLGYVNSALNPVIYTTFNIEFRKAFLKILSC
T1 sequence (P31645 whole entry): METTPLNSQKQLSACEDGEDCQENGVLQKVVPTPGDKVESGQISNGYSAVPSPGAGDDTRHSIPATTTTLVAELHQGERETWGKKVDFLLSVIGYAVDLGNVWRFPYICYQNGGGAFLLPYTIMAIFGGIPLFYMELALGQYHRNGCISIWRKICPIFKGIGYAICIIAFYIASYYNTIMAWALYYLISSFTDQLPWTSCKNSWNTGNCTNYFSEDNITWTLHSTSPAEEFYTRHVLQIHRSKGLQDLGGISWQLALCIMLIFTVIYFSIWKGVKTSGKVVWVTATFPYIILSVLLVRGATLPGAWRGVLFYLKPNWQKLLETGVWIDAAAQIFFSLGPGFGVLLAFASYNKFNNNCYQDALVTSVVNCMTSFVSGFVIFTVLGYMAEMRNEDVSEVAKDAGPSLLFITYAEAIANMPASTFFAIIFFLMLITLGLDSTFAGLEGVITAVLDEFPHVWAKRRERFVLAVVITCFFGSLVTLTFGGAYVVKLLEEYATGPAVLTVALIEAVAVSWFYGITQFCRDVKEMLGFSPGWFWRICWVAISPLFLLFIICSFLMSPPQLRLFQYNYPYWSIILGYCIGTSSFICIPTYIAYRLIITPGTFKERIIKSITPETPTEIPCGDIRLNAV
T3 sequence (P14416 whole entry): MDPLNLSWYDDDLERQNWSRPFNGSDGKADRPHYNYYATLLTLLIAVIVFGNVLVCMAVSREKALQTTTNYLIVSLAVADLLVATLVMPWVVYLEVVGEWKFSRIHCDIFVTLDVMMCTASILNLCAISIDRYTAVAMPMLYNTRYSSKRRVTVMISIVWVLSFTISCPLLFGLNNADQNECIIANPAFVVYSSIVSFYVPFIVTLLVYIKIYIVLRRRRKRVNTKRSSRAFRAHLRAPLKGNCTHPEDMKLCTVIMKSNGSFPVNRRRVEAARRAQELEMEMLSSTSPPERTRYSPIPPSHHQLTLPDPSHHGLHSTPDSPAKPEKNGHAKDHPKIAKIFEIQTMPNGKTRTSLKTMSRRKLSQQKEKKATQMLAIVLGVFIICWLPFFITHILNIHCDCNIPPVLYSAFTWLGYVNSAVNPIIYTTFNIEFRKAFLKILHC

Structure (SMILES)	pIC50 5HTT (human 5HT transporter)	pIC50 5-HT1A (Human 5HT1A receptor)	pIC50 D2 [1]	pIC50 D3 [2]
COc1cc2c(cc1OC)C1=NOC(CN3CC=C(c4c[nH]c5ccc(C#N)cc45)CC3)C1CO2 (racemic) [Compound 23]	7.4	8.2	6.1	6.8
COc1cc2c(cc1OC)C1=NOC(CN3CC=C(c4c[nH]c5ccccc45)CC3)C1CO2 (single isomer, unassigned) [Compound 6]	7.1	6.6	<6	6.2
